Data reported in patent US11911356B2, “Regulation of mutant TERT by BRAF V600E/map kinase pathway through FOS/GABP in human cancer” (THE JOHNS HOPKINS UNIVERSITY, priority 2017, dated 2024).

Legend:
ERK phosphorylation = assay: Western blotting of phosphorylated ERK in inhibitor-treated cells; type: cell-based, human; settings: 0.5 uM PLX4032, 24 hours
Protocol: FIG. 2A-2G. BRAF V600E/MAPK pathway regulated TERT expression. (FIG. 2A) TERT expression was analyzed by qRT-PCR in cells treated with 0.5 uM PLX4032 or 0.2 uM AZD6244 for 24 hours (upper panel). The corresponding levels of phosphorylated ERK (p-ERK), total ERK (t-ERK), and beta-actin were detected by Western blotting (lower panel). The relative TERT mRNA expression levels were normalized to the DMSO control group. (FIG. 2B) Luciferase reporting assay of TERT promoter activities in K1 cells treated with DMSO or PLX4032 (0.5 uM). (FIG. 2C, 2D) Specific shRNA against BRAF were used to knock down BRAF in thyroid cancer cell lines BCPAP and K1 and melanoma cell line A375. Scramble shRNA was used as control. Cells were then subjected to Western blotting (FIG. 2C) and qRT-PCR (FIG. 2D). (FIG. 2E) Sequencing of the BRAF exon-15 in the parental and heterozygous BRAF-V600E knock-in SW48 cells. BRAF V600E was knocked in on one allele of BRAF by rAAV technology through homologous recombination and Cre recombinase of the Neo cassette. (FIG. 2F) Western blotting analyses of phosphorylation of ERK (p-ERK), total ERK (t-ERK), BRAF, and beta-actin in the parental and BRAF-V600E knock-in SW48 cells. (FIG. 2G) TERT promoter luciferase reporter assay in SW48 cells with/without BRAF V600E knock-in. **P<0.01, ***P<0.001, by 2-tailed Student's t test. P values are for the comparison of the indicated condition with DMSO (FIG. 2B), scramble (FIG. 2D), or BRAF-WT groups (FIG. 2G). All the values represent the average standard deviation (SD) of triplicate samples from a typical experiment. All the experiments were performed three times with similar results. […]
Cells were lysed in the RIPA buffer (#sc-24948; Santa Cruz Biotechnology, Santa Cruz, CA) with protease inhibitor cocktail (#P8340; Sigma-Aldrich) and phosphatase inhibitor cocktail (#P0044; Sigma-Aldrich) and Western blotting analysis was performed as we previously described^54. […] Signals were detected by SuperSignal™ West Pico PLUS Chemiluminescent Substrate (#34579; Thermo Fisher Scientific). […]

TERT expression = TERT expression by qRT-PCR in human cancer cell lines treated with inhibitors; type: cell-based; settings: for TERT expression: 0.5 uM PLX4032, 24 hours
Protocol: FIG. 2A-2G. BRAF V600E/MAPK pathway regulated TERT expression. (FIG. 2A) TERT expression was analyzed by qRT-PCR in cells treated with 0.5 uM PLX4032 or 0.2 uM AZD6244 for 24 hours (upper panel). The corresponding levels of phosphorylated ERK (p-ERK), total ERK (t-ERK), and beta-actin were detected by Western blotting (lower panel). The relative TERT mRNA expression levels were normalized to the DMSO control group. (FIG. 2B) Luciferase reporting assay of TERT promoter activities in K1 cells treated with DMSO or PLX4032 (0.5 uM). (FIG. 2C, 2D) Specific shRNA against BRAF were used to knock down BRAF in thyroid cancer cell lines BCPAP and K1 and melanoma cell line A375. Scramble shRNA was used as control. Cells were then subjected to Western blotting (FIG. 2C) and qRT-PCR (FIG. 2D). (FIG. 2E) Sequencing of the BRAF exon-15 in the parental and heterozygous BRAF-V600E knock-in SW48 cells. BRAF V600E was knocked in on one allele of BRAF by rAAV technology through homologous recombination and Cre recombinase of the Neo cassette. (FIG. 2F) Western blotting analyses of phosphorylation of ERK (p-ERK), total ERK (t-ERK), BRAF, and beta-actin in the parental and BRAF-V600E knock-in SW48 cells. (FIG. 2G) TERT promoter luciferase reporter assay in SW48 cells with/without BRAF V600E knock-in. **P<0.01, ***P<0.001, by 2-tailed Student's t test. P values are for the comparison of the indicated condition with DMSO (FIG. 2B), scramble (FIG. 2D), or BRAF-WT groups (FIG. 2G). All the values represent the average standard deviation (SD) of triplicate samples from a typical experiment. All the experiments were performed three times with similar results.
FIG. 3A-3C. MYC regulated TERT expression in a TERT promoter mutation-independent manner. (FIG. 3A) The four indicated cancer cell lines harboring BRAF V600E mutation were treated with 0.5 uM PLX4032 and/or 10 nM MYC-specific siRNA (siMYC) for 24 hours, which were then subjected to Western blotting (upper panel) and qRT-PCR (lower panel). The relative TERT mRNA expression was normalized to the control group. (FIG. 3B, 3C) Parental and BRAF V600E knock-in SW48 cells were treated with control siRNA (siControl) or MYC-specific siRNA (siMYC, 10 nM) for 48 h, followed by Western blotting (FIG. 3B) and luciferase reporter assays (FIG. 3C). *P<0.05, **P<0.01, ***P<0.001, by 2-tailed Student's t test. n.s., not significant. All the values represent the average standard deviation (SD) of triplicate samples from a typical experiment. Similar results were obtained in two additional independent experiments.
FIG. 9A-9B. Summarized effects of PLX4032 (FIG. 9A) and AZD6244 (FIG. 9B) on TERT mRNA expression. Each bar represents the average+SD of the cells with the same genotypes as follows: BRAF-mut and TERT-mut cell lines: BCPAP, K1, OCUT1, A375, and M14; BRAF-mut and TERT-wt cell lines: SK-MEL-1, SK-MEL-3, and RKO; BRAF-wt and TERT-mut cell lines: TPC1, KAT18, C643, CHL-1, SK-MEL-2, and Mewo; BRAF-wt and TERT-wt cell lines: FB1, WRO, and HTORI3. Compared with the corresponding control of DMSO, **P<0.01, ***P<0.001, by independent t-test.
The BRAF V600E-specific inhibitor PLX4032 (#S1267) and the MEK1 inhibitor AZD6244 (#S1008) were purchased from Selleck Chemicals (Houston, TX), dissolved in DMSO with a stock concentration of 10 mM and stored at −20° C. PLX4032 and AZD6244 were used to treat cells for 24 hours at 0.5 μM and 0.2 μM, respectively, where indicated in the manuscript. DMSO was used as the vehicle control.
Total RNA was extracted from cultured cells using the TRIzol reagent (#15596-018; Ambion, Life Technologies, Carlsbad, CA) and reverse-transcribed to cDNA using the SuperScript III First-Strand Synthesis System (#18080-051; Invitrogen, Life Technologies, Carlsbad, CA). Gene expression was analyzed in triplicate using FastStart Universal SYBR Green Master with ROX (#04913850001; Roche Applied Science, Indianapolis, IN) on the Applied Biosystems 7900HT Fast Real-Time PCR System. […]

## CCCS(=O)(=O)Nc1ccc(F)c(C(=O)c2c[nH]c3ncc(-c4ccc(Cl)cc4)cc23)c1F [PLX4032]
ERK phosphorylation; cells harboring BRAF V600E mutation
  ERK phosphorylation: specifically suppressed ERK phosphorylation
ERK phosphorylation; several wild-type BRAF cell lines
  ERK phosphorylation: increase in ERK phosphorylation
TERT expression; RKO and SK-MEL-3 cells, wild-type TERT promoter
  TERT expression: moderate level
TERT expression; all the cells harboring BRAF mutation (FIG. 3A)
  TERT expression: decreased TERT expression
TERT expression; cells harboring TERT promoter mutations, 0.5 uM PLX4032 with 10 nM siMYC, 24 hours
  TERT expression after siRNA knockdown of MYC: could further inhibit TERT expression
TERT expression; cells harboring both BRAF V600E and TERT promoter mutations
  TERT expression: dramatically inhibited TERT expression
TERT expression; cells harboring the wild-type TERT promoter
  TERT expression: limited effect
TERT expression; cells harboring wild-type BRAF
  TERT expression: no inhibitory effect
TERT expression; wild-type BRAF cell lines, especially TERT mutant cells (KAT18, C643 and CHL-1)
  TERT expression: increase in TERT expression
